Reference: publication PMC10707982, “Solubility and Thermodynamics Data of Cabozantinib Malate in Various Aqueous Solutions of Dimethyl Sulfoxide at Different Temperatures” (Molecules, 2023)

What was measured:
[1] = set-up: method as in earlier work; conditions: all aqueous solutions, including H2O; cited from earlier work
[2] = Activity coefficients (γi = xidl/xe) of CBZM; format: physicochemical
Source text: The data for Tfus, ΔHfus, and ΔCp for CBZM were collected from Ref. [20], and they are 462.72 K, 56.93 kJ mol^−1, and 123.03 J mol^−1 K^−1, respectively. Now, Equation (2) was used to determine the xidl values for CBZM. The γi values for CBZM in all cosolvent combinations and pure solvents were obtained using Equation (3):(3) γi=xidl/xe

[3] = set-up: method as in doi:10.1016/j.molliq.2020.115146; conditions: cited from earlier work
[4] = Apparent thermodynamic analysis of CBZM dissolution (van't Hoff and Gibbs equations) and enthalpy–entropy compensation; format: physicochemical
Description: All of the CBZM’s apparent thermodynamic properties were determined at Thm. The reported equation was used to determine the Thm. Then, 308 K was calculated as the Thm for CBZM. Several thermodynamic parameters were obtained via an apparent thermodynamic analysis. These parameters were computed using the van’t Hoff and Gibbs equations. Using Equation (12) and Thm = 308 K, the ΔsolH^0 data for CBZM in cosolvent mixtures and pure solvents were calculated:(12) ∂ln xe/∂1/T−1/ThmP=−ΔsolH^0/R
The ΔsolH^0 for CBZM was obtained by the plotted van’t Hoff curves between ln xe of CBZM and 1/T−1/Thm .
Furthermore, at Thm = 308 K, the ΔsolG^0 for CBZM in cosolvent combinations and pure solvents was derived utilizing the Krug et al. approach by Equation (13):(13) ΔsolG^0=−RThm×intercept where the intercept values for CBZM in cosolvent combinations and pure solvents were calculated using the van’t Hoff plots depicted in Figure 5.
By Equation (14), the ΔsolS^0 for CBZM in cosolvent mixtures and neat solvents was derived:(14) ΔsolS^0=ΔsolH^0−ΔsolG^0/Thm
An enthalpy–entropy compensation analyses was performed, as previously described, to assess the solvation behavior of CBZM in cosolvent mixtures and neat solvents. Weighted curves of ΔsolH° vs. ΔsolG° were constructed at Thm = 308 K for this experiment.

[5] = DMSO mass fraction m = 0.0, Thm = 308 K
[6] = DMSO mass fraction m = 0.1, Thm = 308 K
[7] = DMSO mass fraction m = 0.2, Thm = 308 K
[8] = DMSO mass fraction m = 0.3, Thm = 308 K
[9] = DMSO mass fraction m = 0.4, Thm = 308 K
[10] = DMSO mass fraction m = 0.5, Thm = 308 K
[11] = DMSO mass fraction m = 0.6, Thm = 308 K
[12] = DMSO mass fraction m = 0.7, Thm = 308 K
[13] = DMSO mass fraction m = 0.8, Thm = 308 K
[14] = DMSO mass fraction m = 0.9, Thm = 308 K
[15] = DMSO mass fraction m = 1.0, Thm = 308 K

SMILES: COc1cc2nccc(Oc3ccc(NC(=O)C4(C(=O)Nc5ccc(F)cc5)CC4)cc3)c2cc1OC [CBZM, Cabozantinib malate]
- Solubility in aqueous solutions [1]: nearly insoluble
- Activity coefficient (γi) ([2]; DMSO mass fraction m = 0.0, T = 298.2 K): 6703
- Activity coefficient (γi) ([2]; DMSO mass fraction m = 0.0, T = 303.2 K): 5689
- Activity coefficient (γi) ([2]; DMSO mass fraction m = 0.0, T = 308.2 K): 5044
- Activity coefficient (γi) ([2]; DMSO mass fraction m = 0.0, T = 313.2 K): 4739
- Activity coefficient (γi) ([2]; DMSO mass fraction m = 0.0, T = 318.2 K): 4597
- Activity coefficient (γi) ([2]; DMSO mass fraction m = 0.1, T = 298.2 K): 2011
- Activity coefficient (γi) ([2]; DMSO mass fraction m = 0.1, T = 303.2 K): 1712
- Activity coefficient (γi) ([2]; DMSO mass fraction m = 0.1, T = 308.2 K): 1608
- Activity coefficient (γi) ([2]; DMSO mass fraction m = 0.1, T = 313.2 K): 1542
- Activity coefficient (γi) ([2]; DMSO mass fraction m = 0.1, T = 318.2 K): 1538
- Activity coefficient (γi) ([2]; DMSO mass fraction m = 0.2, T = 298.2 K): 605.5
- Activity coefficient (γi) ([2]; DMSO mass fraction m = 0.2, T = 303.2 K): 550.8
- Activity coefficient (γi) ([2]; DMSO mass fraction m = 0.2, T = 308.2 K): 521.3
- Activity coefficient (γi) ([2]; DMSO mass fraction m = 0.2, T = 313.2 K): 517.5
- Activity coefficient (γi) ([2]; DMSO mass fraction m = 0.2, T = 318.2 K): 518.0
- Activity coefficient (γi) ([2]; DMSO mass fraction m = 0.3, T = 298.2 K): 187.7
- Activity coefficient (γi) ([2]; DMSO mass fraction m = 0.3, T = 303.2 K): 173.5
- Activity coefficient (γi) ([2]; DMSO mass fraction m = 0.3, T = 308.2 K): 167.9
- Activity coefficient (γi) ([2]; DMSO mass fraction m = 0.3, T = 313.2 K): 169.7
- Activity coefficient (γi) ([2]; DMSO mass fraction m = 0.3, T = 318.2 K): 174.4
- Activity coefficient (γi) ([2]; DMSO mass fraction m = 0.4, T = 298.2 K): 56.40
- Activity coefficient (γi) ([2]; DMSO mass fraction m = 0.4, T = 303.2 K): 55.14
- Activity coefficient (γi) ([2]; DMSO mass fraction m = 0.4, T = 308.2 K): 55.29
- Activity coefficient (γi) ([2]; DMSO mass fraction m = 0.4, T = 313.2 K): 56.55
- Activity coefficient (γi) ([2]; DMSO mass fraction m = 0.4, T = 318.2 K): 59.49
- Activity coefficient (γi) ([2]; DMSO mass fraction m = 0.5, T = 298.2 K): 17.42
- Activity coefficient (γi) ([2]; DMSO mass fraction m = 0.5, T = 303.2 K): 17.07
- Activity coefficient (γi) ([2]; DMSO mass fraction m = 0.5, T = 308.2 K): 17.69
- Activity coefficient (γi) ([2]; DMSO mass fraction m = 0.5, T = 313.2 K): 18.40
- Activity coefficient (γi) ([2]; DMSO mass fraction m = 0.5, T = 318.2 K): 19.80
- Activity coefficient (γi) ([2]; DMSO mass fraction m = 0.6, T = 298.2 K): 5.281
- Activity coefficient (γi) ([2]; DMSO mass fraction m = 0.6, T = 303.2 K): 5.524
- Activity coefficient (γi) ([2]; DMSO mass fraction m = 0.6, T = 308.2 K): 5.800
- Activity coefficient (γi) ([2]; DMSO mass fraction m = 0.6, T = 313.2 K): 6.266
- Activity coefficient (γi) ([2]; DMSO mass fraction m = 0.6, T = 318.2 K): 6.776
- Activity coefficient (γi) ([2]; DMSO mass fraction m = 0.7, T = 298.2 K): 1.609
- Activity coefficient (γi) ([2]; DMSO mass fraction m = 0.7, T = 303.2 K): 1.699
- Activity coefficient (γi) ([2]; DMSO mass fraction m = 0.7, T = 308.2 K): 1.853
- Activity coefficient (γi) ([2]; DMSO mass fraction m = 0.7, T = 313.2 K): 2.023
- Activity coefficient (γi) ([2]; DMSO mass fraction m = 0.7, T = 318.2 K): 2.267
- Activity coefficient (γi) ([2]; DMSO mass fraction m = 0.8, T = 298.2 K): 0.4851
- Activity coefficient (γi) ([2]; DMSO mass fraction m = 0.8, T = 303.2 K): 0.5430
- Activity coefficient (γi) ([2]; DMSO mass fraction m = 0.8, T = 308.2 K): 0.6120
- Activity coefficient (γi) ([2]; DMSO mass fraction m = 0.8, T = 313.2 K): 0.6808
- Activity coefficient (γi) ([2]; DMSO mass fraction m = 0.8, T = 318.2 K): 0.7771
- Activity coefficient (γi) ([2]; DMSO mass fraction m = 0.9, T = 298.2 K): 0.1392
- Activity coefficient (γi) ([2]; DMSO mass fraction m = 0.9, T = 303.2 K): 0.1658
- Activity coefficient (γi) ([2]; DMSO mass fraction m = 0.9, T = 308.2 K): 0.1932
- Activity coefficient (γi) ([2]; DMSO mass fraction m = 0.9, T = 313.2 K): 0.2245
- Activity coefficient (γi) ([2]; DMSO mass fraction m = 0.9, T = 318.2 K): 0.2572
- Activity coefficient (γi) ([2]; DMSO mass fraction m = 1.0, T = 298.2 K): 0.0455
- Activity coefficient (γi) ([2]; DMSO mass fraction m = 1.0, T = 303.2 K): 0.0547
- Activity coefficient (γi) ([2]; DMSO mass fraction m = 1.0, T = 308.2 K): 0.0646
- Activity coefficient (γi) ([2]; DMSO mass fraction m = 1.0, T = 313.2 K): 0.0771
- Activity coefficient (γi) ([2]; DMSO mass fraction m = 1.0, T = 318.2 K): 0.0894
- Total HSP (δt) [3]: 25.50 MPa^1/2
- Apparent standard Gibbs energy ΔsolG^0 [4, 5]: 37.36 kJ/mol
- Apparent standard enthalpy ΔsolH^0 [4, 5]: 52.71 kJ/mol
- Apparent standard entropy ΔsolS^0 [4, 5]: 49.82 J mol^−1 K^−1
- Apparent standard Gibbs energy ΔsolG^0 [4, 6]: 34.41 kJ/mol
- Apparent standard enthalpy ΔsolH^0 [4, 6]: 48.03 kJ/mol
- Apparent standard entropy ΔsolS^0 [4, 6]: 44.21 J mol^−1 K^−1
- Apparent standard Gibbs energy ΔsolG^0 [4, 7]: 31.52 kJ/mol
- Apparent standard enthalpy ΔsolH^0 [4, 7]: 43.82 kJ/mol
- Apparent standard entropy ΔsolS^0 [4, 7]: 39.92 J mol^−1 K^−1
- Apparent standard Gibbs energy ΔsolG^0 [4, 8]: 28.62 kJ/mol
- Apparent standard enthalpy ΔsolH^0 [4, 8]: 40.57 kJ/mol
- Apparent standard entropy ΔsolS^0 [4, 8]: 38.80 J mol^−1 K^−1
- Apparent standard Gibbs energy ΔsolG^0 [4, 9]: 25.74 kJ/mol
- Apparent standard enthalpy ΔsolH^0 [4, 9]: 35.81 kJ/mol
- Apparent standard entropy ΔsolS^0 [4, 9]: 32.71 J mol^−1 K^−1
- Apparent standard Gibbs energy ΔsolG^0 [4, 10]: 22.81 kJ/mol
- Apparent standard enthalpy ΔsolH^0 [4, 10]: 32.78 kJ/mol
- Apparent standard entropy ΔsolS^0 [4, 10]: 32.35 J mol^−1 K^−1
- Apparent standard Gibbs energy ΔsolG^0 [4, 11]: 19.95 kJ/mol
- Apparent standard enthalpy ΔsolH^0 [4, 11]: 28.02 kJ/mol
- Apparent standard entropy ΔsolS^0 [4, 11]: 26.18 J mol^−1 K^−1
- Apparent standard Gibbs energy ΔsolG^0 [4, 12]: 17.03 kJ/mol
- Apparent standard enthalpy ΔsolH^0 [4, 12]: 24.18 kJ/mol
- Apparent standard entropy ΔsolS^0 [4, 12]: 23.21 J mol^−1 K^−1
- Apparent standard Gibbs energy ΔsolG^0 [4, 13]: 14.15 kJ/mol
- Apparent standard enthalpy ΔsolH^0 [4, 13]: 19.48 kJ/mol
- Apparent standard entropy ΔsolS^0 [4, 13]: 17.30 J mol^−1 K^−1
- Apparent standard Gibbs energy ΔsolG^0 [4, 14]: 11.19 kJ/mol
- Apparent standard entropy ΔsolS^0 [4, 14]: 9.05 J mol^−1 K^−1
- Apparent standard Gibbs energy ΔsolG^0 [4, 15]: 8.38 kJ/mol
- Apparent standard enthalpy ΔsolH^0 [4, 15]: 11.43 kJ/mol
- Apparent standard entropy ΔsolS^0 [4, 15]: 9.91 J mol^−1 K^−1
- Solvation-driven process (enthalpy–entropy compensation) ([4]; all cosolvent combinations and pure solvents, Thm = 308 K): enthalpy-driven
- Nature of dissolution ([4]; all cosolvent combinations, including neat solvents): endothermic and entropy-driven
